Experimental data taken from patent US11787785B2 (NOVARTIS AG, priority 2021, dated 2023).

Target: T1, WIZ protein (HiBit-WIZ fusion protein) (Homo sapiens, UniProt O95785+Q96SW2)
T1 construct: expressed in transfected cells
Experiment: Quantification of WIZ protein levels in HiBit tag fusion protein assay (WIZ HiBit assay in 293T cells)
Type: cell-based
Parameters: remaining activity / Dmax: dose or concentration left out as unconfirmed
Details: for DC50: WIZ HiBit assay in 293T cells, 10-point, 5-fold dose response, highest concentration 25 μM, about 18 hours, read-out: WIZ AC50
How it was run: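 HiBit-tagged WIZ (N-terminal tag, HSVTK promoter) stably expressed single-copy in 293T cells; 10-point 1:5 compound series, top 25 μM, ~18 h at 37 °C. Lytic HiBit/LgBit luminescence read; Amax = curve-fitted % WIZ-HiBit remaining at 25 μM, DMSO normalized to 100%.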

[1] = HEK-293T, 100 − Amax, at 25 uM, 293T cells, read-out: % degradation of WIZ (100 − Amax)
[2] = HEK-293T, DMSO-normalized, curve-fitted percentage of WIZ-HiBit remaining at 25 uM, 293T cells, read-out: WIZ Amax

T1 sequence (O95785 whole entry, the tested form may be a part): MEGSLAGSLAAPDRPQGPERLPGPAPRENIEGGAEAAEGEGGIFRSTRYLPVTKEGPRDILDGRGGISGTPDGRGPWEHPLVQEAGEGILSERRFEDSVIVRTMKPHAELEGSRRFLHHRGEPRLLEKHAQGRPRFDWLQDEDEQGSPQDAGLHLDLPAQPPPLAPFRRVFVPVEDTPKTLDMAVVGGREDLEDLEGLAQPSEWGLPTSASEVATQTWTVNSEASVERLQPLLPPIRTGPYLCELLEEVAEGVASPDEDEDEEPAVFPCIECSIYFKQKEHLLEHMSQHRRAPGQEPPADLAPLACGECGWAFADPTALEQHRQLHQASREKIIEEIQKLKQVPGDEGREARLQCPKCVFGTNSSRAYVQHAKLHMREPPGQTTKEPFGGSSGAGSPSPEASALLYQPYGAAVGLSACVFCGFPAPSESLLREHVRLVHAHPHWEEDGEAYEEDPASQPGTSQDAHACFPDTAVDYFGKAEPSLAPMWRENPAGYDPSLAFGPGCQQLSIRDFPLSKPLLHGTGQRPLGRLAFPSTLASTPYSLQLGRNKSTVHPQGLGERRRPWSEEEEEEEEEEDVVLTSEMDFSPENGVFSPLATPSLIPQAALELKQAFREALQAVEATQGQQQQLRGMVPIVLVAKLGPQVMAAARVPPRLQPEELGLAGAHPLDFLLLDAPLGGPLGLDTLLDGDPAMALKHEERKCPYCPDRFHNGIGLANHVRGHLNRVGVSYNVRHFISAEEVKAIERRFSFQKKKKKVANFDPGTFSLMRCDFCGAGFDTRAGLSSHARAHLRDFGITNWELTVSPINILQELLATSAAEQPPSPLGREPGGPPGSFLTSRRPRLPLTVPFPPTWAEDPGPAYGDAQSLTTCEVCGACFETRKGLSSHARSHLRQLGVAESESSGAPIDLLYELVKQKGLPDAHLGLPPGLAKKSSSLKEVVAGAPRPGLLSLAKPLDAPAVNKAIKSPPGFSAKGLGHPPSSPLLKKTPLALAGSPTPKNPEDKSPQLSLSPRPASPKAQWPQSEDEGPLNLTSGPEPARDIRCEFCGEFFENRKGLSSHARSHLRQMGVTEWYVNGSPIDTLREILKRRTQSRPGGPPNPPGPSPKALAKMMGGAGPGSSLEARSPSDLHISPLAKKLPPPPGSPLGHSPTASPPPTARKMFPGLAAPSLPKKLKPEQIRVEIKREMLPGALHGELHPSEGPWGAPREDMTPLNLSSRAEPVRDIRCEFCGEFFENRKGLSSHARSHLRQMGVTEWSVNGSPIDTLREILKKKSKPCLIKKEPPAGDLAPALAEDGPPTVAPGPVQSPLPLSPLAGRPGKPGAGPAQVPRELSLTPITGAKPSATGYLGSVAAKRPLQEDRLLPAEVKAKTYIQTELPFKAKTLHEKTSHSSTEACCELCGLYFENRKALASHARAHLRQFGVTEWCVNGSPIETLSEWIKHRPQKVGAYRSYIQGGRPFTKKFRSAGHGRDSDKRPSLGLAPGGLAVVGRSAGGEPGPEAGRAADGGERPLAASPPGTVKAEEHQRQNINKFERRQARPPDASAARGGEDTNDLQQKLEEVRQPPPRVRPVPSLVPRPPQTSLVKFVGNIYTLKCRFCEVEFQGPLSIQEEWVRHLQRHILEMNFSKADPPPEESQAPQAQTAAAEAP
T1 sequence (Q96SW2 whole entry, the tested form may be a part): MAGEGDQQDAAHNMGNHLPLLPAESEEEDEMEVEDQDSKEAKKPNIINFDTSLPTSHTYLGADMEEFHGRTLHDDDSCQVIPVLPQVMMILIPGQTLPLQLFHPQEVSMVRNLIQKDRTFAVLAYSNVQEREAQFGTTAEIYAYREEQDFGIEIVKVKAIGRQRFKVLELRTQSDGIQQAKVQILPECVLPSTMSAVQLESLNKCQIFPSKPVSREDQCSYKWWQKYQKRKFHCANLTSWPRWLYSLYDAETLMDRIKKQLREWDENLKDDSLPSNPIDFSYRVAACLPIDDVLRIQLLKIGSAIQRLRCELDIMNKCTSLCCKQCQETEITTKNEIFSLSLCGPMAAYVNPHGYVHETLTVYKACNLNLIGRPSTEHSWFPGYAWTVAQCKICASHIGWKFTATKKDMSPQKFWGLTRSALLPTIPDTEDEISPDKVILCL
T1 sequence (Q16531 whole entry partner, the tested form may be a part): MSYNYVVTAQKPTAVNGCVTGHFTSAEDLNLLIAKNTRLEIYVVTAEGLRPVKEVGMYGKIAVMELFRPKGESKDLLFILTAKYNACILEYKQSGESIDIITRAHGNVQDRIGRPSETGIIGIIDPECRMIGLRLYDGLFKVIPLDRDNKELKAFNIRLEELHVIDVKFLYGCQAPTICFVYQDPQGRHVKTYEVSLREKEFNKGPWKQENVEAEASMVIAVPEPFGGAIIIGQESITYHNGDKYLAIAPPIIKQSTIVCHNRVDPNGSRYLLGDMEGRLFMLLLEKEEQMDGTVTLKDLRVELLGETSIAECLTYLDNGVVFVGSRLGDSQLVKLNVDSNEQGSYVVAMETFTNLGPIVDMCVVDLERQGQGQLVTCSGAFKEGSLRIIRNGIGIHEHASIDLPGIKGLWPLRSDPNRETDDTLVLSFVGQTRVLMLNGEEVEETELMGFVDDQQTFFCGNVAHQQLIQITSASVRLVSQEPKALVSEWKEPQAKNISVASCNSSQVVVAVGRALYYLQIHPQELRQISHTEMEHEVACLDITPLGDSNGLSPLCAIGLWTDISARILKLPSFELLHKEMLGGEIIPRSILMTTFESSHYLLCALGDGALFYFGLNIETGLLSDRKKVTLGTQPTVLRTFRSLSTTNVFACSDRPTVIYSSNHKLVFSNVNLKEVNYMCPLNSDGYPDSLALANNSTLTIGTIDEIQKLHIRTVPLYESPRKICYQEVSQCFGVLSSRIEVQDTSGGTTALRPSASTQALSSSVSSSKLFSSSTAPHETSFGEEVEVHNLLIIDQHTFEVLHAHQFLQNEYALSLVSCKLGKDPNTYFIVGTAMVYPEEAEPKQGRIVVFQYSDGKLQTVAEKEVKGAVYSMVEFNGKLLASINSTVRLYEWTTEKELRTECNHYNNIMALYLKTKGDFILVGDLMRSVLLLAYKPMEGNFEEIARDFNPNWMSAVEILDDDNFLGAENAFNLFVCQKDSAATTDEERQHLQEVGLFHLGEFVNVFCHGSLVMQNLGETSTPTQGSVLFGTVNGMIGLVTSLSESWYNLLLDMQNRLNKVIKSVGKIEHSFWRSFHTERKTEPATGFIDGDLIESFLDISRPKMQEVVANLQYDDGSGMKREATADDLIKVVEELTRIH

Q: What does the source list for `O=C1CCN(c2cnn3ccc(CC4CCN(CC5CCOC5)CC4)cc23)C(=O)N1` (stereo not drawn) [Example 14, 1-(5-((1-((tetrahydrofuran-3-yl)methyl)piperidin-4-yl)methyl)pyrazolo[1,5-a]pyridin-3-yl)dihydropyrimidine-2,4(1H,3H)-dione]?
A: Dmax at 25 µM [1]: 84%; remaining activity at 25 µM [2]: 16%; DC50: 28 nM

Q: Which results are given for `C[C@H]1C[C@H](Cc2ccn3ncc(N4CCC(=O)NC4=O)c3c2)CCN1C(=O)N1CCCC1` [Example 295]?
A: Dmax at 25 µM [1]: 80%; remaining activity at 25 µM [2]: 20%; DC50: 24 nM

Q: Which results are given for `CC(C)CN1CC[C@H](Cc2ccn3ncc(N4CCC(=O)NC4=O)c3c2)C[C@@H]1C(F)(F)F` (relative stereo) [Example 312, (cis)-1-(5-((1-isobutyl-2-(trifluoromethyl)piperidin-4-yl)methyl)pyrazolo[1,5-a]pyridin-3-yl)dihydropyrimidine-2,4(1H,3H)-dione]?
A: Dmax at 25 µM [1]: 44%; remaining activity at 25 µM [2]: 56%; DC50: 370 nM

Q: Which Dmax at 25 µM [1] does the source give for `C[C@H]1C[C@H](Cc2ccn3ncc(-n4ccc(=O)[nH]c4=O)c3c2)CCN1CC1CCC(F)(F)CC1` [Example 268, 1-(5-(((2S,4R)-1-((4,4-difluorocyclohexyl)methyl)-2-methylpiperidin-4-yl)methyl)pyrazolo[1,5-a]pyridin-3-yl)pyrimidine-2,4(1H,3H)-dione] here?
A: Its Dmax at 25 µM is 89%.

Q: And the remaining activity at 25 µM [2]?
A: Its remaining activity at 25 µM is 11%.

Q: And the DC50?
A: The DC50 was 24 nM.

Q: Which Dmax at 25 µM [1] does the source give for `C[C@H]1C[C@H](Cc2ccn3ncc(N4CCC(=O)NC4=O)c3c2)CCN1CC1CCCCCC1` [Example 147] here?
A: The Dmax at 25 µM was 90%.

Q: What about the remaining activity at 25 µM [2] of the same compound?
A: The remaining activity at 25 µM was 10%.

Q: And the DC50?
A: Its DC50 is 5 nM.

Q: Which results are given for `CC(C)CN1CCN(Cc2ccn3ncc(-n4cc(F)c(=O)[nH]c4=O)c3c2)C[C@@H]1C` [Example 358, (S)-5-fluoro-1-(5-((4-isobutyl-3-methylpiperazin-1-yl)methyl)pyrazolo[1,5-a]pyridin-3-yl)pyrimidine-2,4(1H,3H)-dione]?
A: Dmax at 25 µM [1]: 86%; remaining activity at 25 µM [2]: 14%; DC50: 128 nM

Q: Which results are given for `C[C@@H]1C[C@@H](Cc2ccn3ncc(N4CCC(=O)NC4=O)c3c2)CCN1CC1CCOCC1` [Example 154]?
A: Dmax at 25 µM [1]: 78%; remaining activity at 25 µM [2]: 22%; DC50: 41 nM

Q: What does the source list for `C[C@@H]1CN(CC2CCOCC2)CCN1Cc1ccn2ncc(N3CCC(=O)NC3=O)c2c1` [Example 219]?
A: Dmax at 25 µM [1]: 75%; remaining activity at 25 µM [2]: 25%; DC50: 212 nM

Q: For `CC1(C)CN(Cc2ccn3ncc(N4CCC(=O)NC4=O)c3c2)CCN1CC1CCOCC1` [Example 232, 1-(5-((3,3-dimethyl-4-((tetrahydro-2H-pyran-4-yl)methyl)piperazin-1-yl)methyl)pyrazolo[1,5-a]pyridin-3-yl)dihydropyrimidine-2,4(1H,3H)-dione], which Dmax at 25 µM [1] is on record?
A: The Dmax at 25 µM was 48%.

Q: And the remaining activity at 25 µM [2]?
A: Its remaining activity at 25 µM is 52%.

Q: What about the DC50 of the same compound?
A: The DC50 was 206 nM.

Q: Which Dmax at 25 µM [1] does the source give for `O=C1CCN(c2cnn3ccc(CN4C[C@H]5C[C@@H]4CN5CC4CCCCC4)cc23)C(=O)N1` [Example 234, 1-(5-(((1R,4R)-5-(cyclohexylmethyl)-2,5-diazabicyclo[2.2.1]heptan-2-yl)methyl)pyrazolo[1,5-a]pyridin-3-yl)dihydropyrimidine-2,4(1H,3H)-dione] here?
A: The Dmax at 25 µM was 42%.

Q: And the remaining activity at 25 µM [2]?
A: Its remaining activity at 25 µM is 58%.

Q: What about the DC50 of the same compound?
A: The DC50 was 942 nM.

Q: With `C[C@H]1CN(Cc2ccn3ncc(N4CCC(=O)NC4=O)c3c2)CCN1CC1CC(F)(F)C1` [Example 205] as the compound, how does the Dmax at 25 µM [1] read?
A: Its Dmax at 25 µM is 82%.

Q: What about the remaining activity at 25 µM [2] of the same compound?
A: The remaining activity at 25 µM was 18%.

Q: What about the DC50 of the same compound?
A: Its DC50 is 24 nM.

Q: Which results are given for `O=C1CCN(c2cnn3ccc(CC4CCN(Cc5nccs5)CC4)cc23)C(=O)N1` [Example 60, 1-(5-((1-(thiazol-2-ylmethyl)piperidin-4-yl)methyl)pyrazolo[1,5-a]pyridin-3-yl)dihydropyrimidine-2,4(1H,3H)-dione]?
A: Dmax at 25 µM [1]: 61%; remaining activity at 25 µM [2]: 39%; DC50: 34 nM

Q: With `CC(C)CN1CCC(Cc2ccn3ncc(N4CCC(=O)NC4=O)c3c2)C1` (stereo not drawn) [Example 132] as the compound, how does the Dmax at 25 µM [1] read?
A: The Dmax at 25 µM was 41%.

Q: What about the remaining activity at 25 µM [2] of the same compound?
A: The remaining activity at 25 µM was 59%.

Q: What about the DC50 of the same compound?
A: The DC50 was 720 nM.

Q: Which results are given for `C[C@H]1CN(Cc2ccn3ncc(N4CCC(=O)NC4=O)c3c2)CCN1C[C@H]1CC[C@H](O)CC1` [Example 201, 1-(5-(((S)-4-(((1r,4S)-4-hydroxycyclohexyl)methyl)-3-methylpiperazin-1-yl)methyl)pyrazolo[1,5-a]pyridin-3-yl)dihydropyrimidine-2,4(1H,3H)-dione]?
A: Dmax at 25 µM [1]: 88%; remaining activity at 25 µM [2]: 12%; DC50: 20 nM

Q: How did the Dmax at 25 µM [1] turn out when `C[C@H]1C[C@H](Cc2ccn3ncc(N4CCC(=O)NC4=O)c3c2)CCN1C(=O)C1CCN(C)CC1` [Example 290] was run?
A: Its Dmax at 25 µM is 54%.

Q: And the remaining activity at 25 µM [2]?
A: Its remaining activity at 25 µM is 46%.

Q: And the DC50?
A: The DC50 was 1700 nM.

Q: `CC(C)CN1CC[C@H](Cc2ccn3ncc(N4CCC(=O)NC4=O)c3c2)C[C@@H]1C` [Example 72] was tested. Which Dmax at 25 µM [1] did it give?
A: The Dmax at 25 µM was 87%.

Q: What about the remaining activity at 25 µM [2] of the same compound?
A: The remaining activity at 25 µM was 13%.

Q: What about the DC50 of the same compound?
A: Its DC50 is 6 nM.

Q: What does the source list for `COC(C)(C)CN1CCC(Cc2ccn3ncc(N4CCC(=O)NC4=O)c3c2)CC1` [Example 105, 1-(5-((1-(2-methoxy-2-methylpropyl)piperidin-4-yl)methyl)pyrazolo[1,5-a]pyridin-3-yl)dihydropyrimidine-2,4(1H,3H)-dione]?
A: Dmax (HEK-293T, read-out: % degradation of WIZ (100 − Amax)): 64%; remaining activity (HEK-293T, read-out: WIZ Amax): 36%; DC50: 2160 nM

Q: `C[C@H]1CN(Cc2ccn3ncc(N4CCC(=O)NC4=O)c3c2)CCN1C(=O)C1CCCC1` [Example 343, (S)-1-(5-((4-(cyclopentanecarbonyl)-3-methylpiperazin-1-yl)methyl)pyrazolo[1,5-a]pyridin-3-yl)dihydropyrimidine-2,4(1H,3H)-dione] was tested. Which Dmax at 25 µM [1] did it give?
A: Its Dmax at 25 µM is 46%.

Q: And the remaining activity at 25 µM [2]?
A: Its remaining activity at 25 µM is 54%.

Q: What about the DC50 of the same compound?
A: The DC50 was 495 nM.

Q: What does the source list for `C[C@H]1CN(Cc2ccn3ncc(N4CCC(=O)NC4=O)c3c2)CCN1C(=O)C1CCC1` [Example 344, (S)-1-(5-((4-(cyclobutanecarbonyl)-3-methylpiperazin-1-yl)methyl)pyrazolo[1,5-a]pyridin-3-yl)dihydropyrimidine-2,4(1H,3H)-dione]?
A: Dmax at 25 µM [1]: 35%; remaining activity at 25 µM [2]: 65%; DC50: 1070 nM

Q: For `O=C1CCN(c2cnn3ccc(CC4CCN(CC5CC(F)(F)C5)CC4)cc23)C(=O)N1` [Example 32, 1-(5-((1-((3,3-difluorocyclobutyl)methyl)piperidin-4-yl)methyl)pyrazolo[1,5-a]pyridin-3-yl)dihydropyrimidine-2,4(1H,3H)-dione], which Dmax at 25 µM [1] is on record?
A: The Dmax at 25 µM was 82%.

Q: And the remaining activity at 25 µM [2]?
A: The remaining activity at 25 µM was 18%.

Q: What about the DC50 of the same compound?
A: Its DC50 is 23 nM.

Q: What does the source list for `C[C@H]1C[C@@H](Cc2ccn3ncc(N4CCC(=O)NC4=O)c3c2)CCN1CC1CCC(F)(F)CC1` [Example 74]?
A: Dmax at 25 µM [1]: 90%; remaining activity at 25 µM [2]: 10%; DC50: 3 nM

Q: What does the source list for `CC(C)S(=O)(=O)N1C[C@H]2C[C@@H]1CN2Cc1ccn2ncc(N3CCC(=O)NC3=O)c2c1` [Example 239, 1-(5-(((1R,4R)-5-(isopropylsulfonyl)-2,5-diazabicyclo[2.2.1]heptan-2-yl)methyl)pyrazolo[1,5-a]pyridin-3-yl)dihydropyrimidine-2,4(1H,3H)-dione]?
A: Dmax at 25 µM [1]: 0%; remaining activity at 25 µM [2]: 100%; DC50: > 25000 nM

Q: How did the “% degradation of WIZ (100 − Amax)” value (100 − Amax, at 25 uM, 293T cells) turn out when `C[C@H]1CC(F)(Cc2ccn3ncc(N4CCC(=O)NC4=O)c3c2)CCN1CC1CCC(F)(F)CC1` (single isomer, unassigned) [Example 309] was run?
A: Its value is 62%.

Q: And the “WIZ Amax” value (DMSO-normalized, curve-fitted percentage of WIZ-HiBit remaining at 25 uM, 293T cells)?
A: The value was 38%.

Q: What about the DC50 of the same compound?
A: The DC50 was 56 nM.
